row,SMILES,melting point [°C]
1,"O=C(O)CCc1cn(Cc2ccc(OCc3ccccc3)cc2)cc1-c1ccccc1 [Example 10, 3-[1-(4-benzyloxybenzyl)-4-phenyl-3-pyrrolyl]propionic acid]",130 to 131
2,"CCOC(=O)/C=C/c1cn(Cc2ccc(OCc3ccccc3)cc2)nc1-c1ccccc1 [Example 284, ethyl (E)-3-[1-(4-benzyloxybenzyl)-3-phenyl-1H-pyrazol-4-yl]propenoate]",94 to 95
3,"COc1ccc(-c2nn(Cc3ccc(OCc4nc(-c5ccccc5)oc4C)cc3)cc2CCC(=O)O)cc1 [Example 102, 3-[3-(4-methoxyphenyl)-1-[4-(5-methyl-2-phenyl-4-oxazolylmethoxy)benzyl]-1H-pyrazol-4-yl]propionic acid]",137 to 138
4,"Cc1oc(-c2ccncc2)nc1COc1ccc(Cn2cc(CCC(=O)O)c(-c3ccccc3)n2)cc1 [Example 83, 3-[1-[4-[5-methyl-2-(4-pyridyl)-4-oxazolylmethoxy]benzyl]-3-phenyl-1H-pyrazol-4-yl]propionic acid]",154 to 155
5,"CCOC(=O)CCc1cn(Cc2cc(OCc3nc(-c4ccccc4)oc3C)no2)nc1OCC [Example 218, ethyl 3-[3-ethoxy-1-[3-(5-methyl-2-phenyl-4-oxazolylmethoxy)-5-isoxazolylmethyl]-1H-pyrazol-4-yl]propionate]",82 to 83
6,"CCOC(=O)/C=C/c1cn(Cc2ccc(OCc3ccccc3)cc2)nc1-c1ccc(F)cc1 [Example 281, ethyl (E)-3-[1-(4-benzyloxybenzyl)-3-(4-fluorophenyl)-1H-pyrazol-4-yl]propenoate]",113 to 114
7,"Cc1oc(-c2ccccc2)nc1COc1ccc(Cn2cc(CCC(=O)O)c(-c3ccccn3)c2)cc1 [Example 64, 3-[1-[4-(5-methyl-2-phenyl-4-oxazolylmethoxy)benzyl]-4-(2-pyridyl)-3-pyrrolyl]propionic acid]",155 to 156
8,"O=C(O)CCc1cn(Cc2ccc(OCc3ccc(-c4ccccc4)nc3)cc2)cc1-c1ccccc1 [Example 277, 3-[4-phenyl-1-[4-(6-phenyl-3-pyridylmethoxy)benzyl]-3-pyrrolyl]propionic acid]",185 to 186
9,"O=C(O)CCc1cn(Cc2ccc(OCc3ccc(-c4ccccc4)cn3)cc2)nc1-c1ccccc1 [Example 302, 3-[3-phenyl-1-[4-(5-phenyl-2-pyridylmethoxy)benzyl]-1H-pyrazol-4-yl]propionic acid]",149 to 150
10,"CCOc1nn(Cc2ccc(OCCn3ncc4ccccc4c3=O)cc2)cc1CCC(=O)O [Example 220, 3-[3-ethoxy-1-[4-[2-[1-oxophthalazin-2(1H)-yl]ethoxy]benzyl]-1H-pyrazol-4-yl]propionic acid]",152 to 153
11,"CCOC(=O)Cc1cn(Cc2ccc(OCc3csc(-c4ccccc4)n3)nc2)nc1-c1ccccc1 [Example 309, ethyl(3-phenyl-1-[6-(2-phenyl-4-thiazolylmethoxy)-3-pyridylmethyl]-1H-pyrazol-4-yl]acetate]",75 to 76
12,"Cc1sc(-c2ccccc2)nc1COc1ccc(Cn2cc(CCC(=O)O)c(-c3ccccc3)c2)cc1 [Example 28, 3-[1-[4-(5-methyl-2-phenyl-4-thiazolylmethoxy)benzyl]-4-phenyl-3-pyrrolyl]propionic acid]",157 to 158
13,"CCOc1nn(Cc2ccc(OCc3cccc(-c4ccccc4)n3)cc2)cc1CCC(=O)O [Example 246, 3-[3-ethoxy-1-[4-(6-phenyl-2-pyridylmethoxy)benzyl]-1H-pyrazol-4-yl]propionic acid]",95 to 96
14,"CCOc1nn(Cc2ccc(OCc3cn4c(OCC)cccc4n3)cc2)cc1CCC(=O)O [Example 227, 3-[3-ethoxy-1-[4-(5-ethoxyimidazo[1,2-a]pyridin-2-ylmethoxy)benzyl]-1H-pyrazol-4-yl]propionic acid]",197 to 198
15,"Cc1oc(-c2ccccc2)nc1COc1ccc(Cn2cc(CCC(=O)O)c(-c3ccccc3)c2)cn1 [Example 268, 3-[1-[6-(5-methyl-2-phenyl-4-oxazolylmethoxy)-3-pyridylmethyl]-4-phenyl-3-pyrrolyl]propionic acid]",123 to 124
16,"CCOc1nn(Cc2ccc(OC)c(OCc3nc(-c4ccccc4)oc3C)c2)cc1CCC(=O)O [Example 215, 3-[3-ethoxy-1-[4-methoxy-3-(5-methyl-2-phenyl-4-oxazolylmethoxy)benzyl]-1H-pyrazol-4-yl]propionic acid]",136 to 137
17,"O=C(O)CCc1cn(Cc2ccc3cc(OCc4cccnc4)ccc3c2)cc1-c1ccccc1 [Example 58, 3-[4-phenyl-1-[6-(3-pyridylmethoxy)-2-naphthylmethyl]-3-pyrrolyl]propionic acid]",158 to 159
18,"O=C(O)c1cn(Cc2ccc(OCc3ccccc3)cc2)nc1-c1ccccc1 [Example 92, 1-(4-benzyloxybenzyl)-3-phenyl-1H-pyrazol-4-carboxylic acid]",152 to 153

row,SMILES,melting point [°C]
1,"Cc1oc(-c2ccco2)nc1COc1ccc(Cn2cc(CCC(=O)O)c(-c3ccc(F)cc3)n2)cc1 [Example 105, 3-[3-(4-fluorophenyl)-1-[4-[2-(2-furyl)-5-methyl-4-oxazolylmethoxy)benzyl]-1H-pyrazol-4-yl]propionic acid]",125 to 126
2,"COc1cc(Cn2cc(CCC(=O)O)c(-c3ccccc3)c2)cc(OCc2csc(-c3cnccn3)n2)c1 [Example 71, 3-[1-[3-methoxy-5-[2-(2-pyrazinyl)-4-thiazolylmethoxy]benzyl]-4-phenyl-3-pyrrolyl]propionic acid]",111 to 112
3,"CCOc1nn(Cc2cccc(OCCn3ncc4ccccc4c3=O)c2)cc1CCC(=O)O [Example 221, 3-[3-ethoxy-1-[3-[2-[1-oxophthalazin-2(1H)-yl]ethoxy]benzyl]-1H-pyrazol-4-yl]propionic acid]",146 to 147
4,"Cc1oc(-c2ccccc2)nc1CCOc1ccc(Cn2cc(CCC(=O)O)c(-c3ccccc3)c2)cc1 [Example 14, 3-[1-[4-[2-(5-methyl-2-phenyl-4-oxazolyl)ethoxy]benzyl]-4-phenyl-3-pyrrolyl]propionic acid]",147 to 148
5,"Cc1oc(-c2ccccc2)nc1COc1nn(Cc2ccc(Oc3ccccc3)cc2)cc1/C=C/C(=O)O [Example 333, (E)-3-[3-(5-methyl-2-phenyl-4-oxazolylmethoxy)-1-(4-phenoxybenzyl)-1H-pyrazol-4-yl]propenoic acid]",210 to 211
6,"CCOC(=O)CCc1cn(Cc2ccc(OCc3cn4c(Cl)cccc4n3)cc2)nc1OCC [Example 224, ethyl 3-[1-[4-(5-chloroimidazo[1,2-a]pyridin-2-ylmethoxy)benzyl]-3-ethoxy-1H-pyrazol-4-yl]propionate]",69 to 70
7,"O=C(O)CCc1cn(Cc2ccc(OCc3ccc4ccccc4n3)cc2)nc1-c1ccc(F)cc1 [Example 294, 3-[3-(4-fluorophenyl)-1-[4-(2-quinolylmethoxy)benzyl]-1H-pyrazol-4-yl]propionic acid]",178 to 179
8,"Cc1ncccc1COc1ccc(Cn2cc(CCC(=O)O)c(-c3ccccc3)c2)cc1 [Example 26, 3-[1-[4-(2-methyl-3-pyridylmethoxy)benzyl]-4-phenyl-3-pyrrolyl]propionic acid]",158 to 159
9,"O=C(O)CCc1cn(Cc2ccc(OCc3ccc4ccccc4n3)cc2)nc1-c1ccccc1 [Example 285, 3-[3-phenyl-1-[4-(2-quinolylmethoxy)benzyl]-1H-pyrazol-4-yl]propionic acid]",147 to 148
10,"O=C(O)CCc1cn(Cc2ccc(OCc3cccnc3)cc2)nc1-c1ccccc1 [Example 91, 3-[3-phenyl-1-[4-(3-pyridylmethoxy)benzyl]-1H-pyrazol-4-yl]propionic acid]",112 to 113
11,"Cc1oc(-c2ccco2)nc1COc1ccc(COc2nn(Cc3ccc(OCc4nc(-c5ccco5)oc4C)cc3)cc2C(=O)O)cc1 [Example 326, 1-[4-[2-(2-furyl)-5-methyl-4-oxazolylmethoxy]benzyl]-3-[4-[2-(2-furyl)-5-methyl-4-oxazolylmethoxy]benzyloxy]-1H-pyrazole-4-carboxylic acid]",144 to 145
12,"Cc1oc(-c2ccccc2)nc1COc1ccc(Cn2cc(CCCC(=O)O)c(-c3ccccc3)n2)cc1 [Example 96, 4-[1-[4-(5-methyl-2-phenyl-4-oxazolylmethoxy)benzyl]-3-phenyl-1H-pyrazole-4-yl]butanoic acid]",118 to 119
13,"CCOc1cc(Cn2cc(CCC(=O)O)c(OCC)n2)ccc1OCc1nc(-c2ccccc2)oc1C [Example 217, 3-[3-ethoxy-1-[3-ethoxy-4-(5-methyl-2-phenyl-4-oxazolylmethoxy)benzyl]-1H-pyrazol-4-yl]propionic acid]",105 to 106
14,"Cc1oc(-c2ccccc2)nc1COc1ccc(Cn2cc(CC(=O)O)c(-c3ccccc3)n2)cn1 [Example 308, [1-[6-(5-methyl-2-phenyl-4-oxazolylmethoxy)-3-pyridylmethyl]-3-phenyl-1H-pyrazol-4-yl]acetic acid]",144 to 145
15,"O=C(O)CCc1cn(Cc2cc(OCc3ccccc3)cc(OCc3csc(-c4cnccn4)n3)c2)cc1-c1ccccc1 [Example 75, 3-[1-[3-benzyloxy-5-[2-(2-pyrazinyl)-4-thiazolylmethoxy]benzyl]-4-phenyl-3-pyrrolyl]propionic acid]",109 to 110
16,"O=C(O)CCc1cn(Cc2ccc(OCc3ccoc3)cc2)cc1-c1ccccc1 [Example 18, 3-[1-[4-(3-furylmethoxy)benzyl]-4-phenyl-3-pyrrolyl]propionic acid]",110 to 111
17,"CCOC(=O)c1cn(Cc2ccc(Oc3ccccc3)cc2)nc1OCc1ccc(OCc2nc(-c3ccccc3)oc2C)c(OC)c1 [Example 324, ethyl 3-[3-methoxy-4-(5-methyl-2-phenyl-4-oxazolylmethoxy)benzyloxy]-1-(4-phenoxybenzyl)-1H-pyrazole-4-carboxylate]",127 to 128
18,"CCOc1nn(Cc2cncc(OCc3nc(-c4ccccc4)oc3C)c2)cc1CCC(=O)O [Example 213, 3-[3-ethoxy-1-[5-(5-methyl-2-phenyl-4-oxazolylmethoxy)-3-pyridylmethyl]-1H-pyrazol-4-yl]propionic acid]",133 to 134

# Source: patent publication US7179823B1, “5-membered n-heterocyclic compounds with hypoglycemic and hypolipidemic activity” (Takeda Pharmaceutical Company Limited, priority 1999, dated 2007)
